Data set [1] in a line: Drug distribution in heart of BALB/c nude mouse xenografted with human 22Rv1 cells at 10 nmol, iv measured 1 to 24 hrs after post dose by fluorescence imaging method. The data set is classed as ADME, organism-based. To be noted: in vivo. A general note: A xenograft is tissue or cells of one species grown in another, often human tumour cells in immunodeficient mice.
In data set [2] the target is Glutamate carboxypeptidase 2 (Homo sapiens, UniProt Q04609). Kind of data set: Inhibition of PSMA in human LNCaP cell lysates incubated for 2 hrs in presence of N-acetylaspartylglutamate by Amplex red glutamic acid/glutamate oxidase assay.
Data set [3] is described as follows: Drug distribution in lung of BALB/c nude mouse xenografted with human 22Rv1 cells at 10 nmol, iv measured 1 to 24 hrs after post dose by fluorescence imaging method. Particulars: in vivo; call rule not given here. The class given is ADME, organism-based.
Data set [4] is described as follows: Drug distribution in spleen of BALB/c nude mouse xenografted with human 22Rv1 cells at 10 nmol, iv measured 1 to 24 hrs after post dose by fluorescence imaging method. The data set is classed as ADME, organism-based. Particulars: in vivo.
A short description of data set [5]: Drug distribution in muscle of BALB/c nude mouse xenografted with human 22Rv1 cells at 10 nmol, iv measured 1 to 24 hrs after post dose by fluorescence imaging method. The class given is ADME, organism-based, Muscle tissue. To be noted: in vivo.
A short description of data set [6]: Drug distribution in tumor of BALB/c nude mouse xenografted with human 22Rv1 cells at 10 nmol, iv measured 1 to 24 hrs after post dose by fluorescence imaging method. The class given is ADME, organism-based, Neoplasm. To be noted: in vivo.
A short description of data set [7]: Drug distribution in liver of BALB/c nude mouse xenografted with human 22Rv1 cells at 10 nmol, iv measured 1 to 24 hrs after post dose by fluorescence imaging method. Particulars: in vivo. The data set is classed as ADME, organism-based.
The nature of data set [8]: Drug distribution in tumor of BALB/c nude mouse xenografted with human 22Rv1 cells at 10 nmol, iv measured 1 to 24 hrs after post dose co-treated with 1 umol DCIBZL by fluorescence imaging method. The data set is classed as ADME, organism-based, Neoplasm. Particulars: in vivo.
A short description of data set [9]: Drug distribution in liver of BALB/c nude mouse xenografted with human 22Rv1 cells at 10 nmol, iv measured 1 to 24 hrs after post dose co-treated with 1 umol DCIBZL by fluorescence imaging method. The data set is classed as ADME, organism-based. To be noted: in vivo.

A word on the Ki: it is the dissociation constant of the complex between target and ligand, obtained from inhibition or displacement.

Glutamate carboxypeptidase 2, sequence (Q04609 whole entry): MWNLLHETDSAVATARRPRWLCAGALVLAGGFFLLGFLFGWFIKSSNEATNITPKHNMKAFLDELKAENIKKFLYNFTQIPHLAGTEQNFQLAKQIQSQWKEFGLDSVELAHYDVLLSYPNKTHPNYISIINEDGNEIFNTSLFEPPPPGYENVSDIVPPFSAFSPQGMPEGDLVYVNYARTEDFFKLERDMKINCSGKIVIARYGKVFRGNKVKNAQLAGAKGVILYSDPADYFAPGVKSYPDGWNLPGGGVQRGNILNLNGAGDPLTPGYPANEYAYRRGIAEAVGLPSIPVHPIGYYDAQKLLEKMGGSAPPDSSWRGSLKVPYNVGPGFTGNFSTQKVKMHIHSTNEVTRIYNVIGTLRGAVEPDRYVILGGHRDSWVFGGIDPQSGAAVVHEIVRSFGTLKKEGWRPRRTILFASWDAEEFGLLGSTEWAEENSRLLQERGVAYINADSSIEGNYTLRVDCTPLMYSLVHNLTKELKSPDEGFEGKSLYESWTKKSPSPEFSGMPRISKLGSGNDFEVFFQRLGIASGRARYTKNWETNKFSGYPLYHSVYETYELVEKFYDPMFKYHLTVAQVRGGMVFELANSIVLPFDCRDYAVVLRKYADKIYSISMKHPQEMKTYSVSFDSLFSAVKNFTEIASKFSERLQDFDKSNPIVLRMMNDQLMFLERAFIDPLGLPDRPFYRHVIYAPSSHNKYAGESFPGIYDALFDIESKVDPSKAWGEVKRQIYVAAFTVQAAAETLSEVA

Consider `CCN1/C(=C/C=C/C=C/C2=[N+](CCCCCC(=O)NCCCC(=O)N[C@@H](CCC(=O)NCCCC[C@H](NC(=O)N[C@@H](CCC(=O)O)C(=O)O)C(=O)O)C(=O)NCCCC[C@H](NC(=O)N[C@@H](CCC(=O)O)C(=O)O)C(=O)O)c3ccc4c(S(=O)(=O)[O-])cc(S(=O)(=O)O)cc4c3C2(C)C)C(C)(C)c2c1ccc1c(S(=O)(=O)O)cc(S(=O)(=O)O)cc21`, for which the Drug uptake entry is “Not Active” in [1]; “Not Active” in data set [3]; “Not Active” in data set [4]; “Not Active” in data set [5]; “Active” in [6]; “Not Active” in [7]. Besides, the Drug uptake result in [8] and in [9] was “Not Active” each time. In [2], the Ki was 0.14 nM.

As for `CCN1/C(=C/C=C/C=C/C2=[N+](CCCCCC(=O)NCCCC(=O)NCCCC[C@H](NC(=O)N[C@@H](CCC(=O)O)C(=O)O)C(=O)O)c3ccc4c(S(=O)(=O)[O-])cc(S(=O)(=O)O)cc4c3C2(C)C)C(C)(C)c2c1ccc1c(S(=O)(=O)O)cc(S(=O)(=O)O)cc21`, the Drug uptake result in [1] was “Not Active”; in data set [3], “Not Active”; in data set [4], “Not Active”; in [5], “Not Active”; in data set [6], “Active”; in data set [7], “Active”. Moreover, the Drug uptake result in data set [8] and in [9] was “Not Active” throughout. Also, the Ki in data set [2] amounted to 0.58 nM.

With `CCN1/C(=C/C=C/C=C/C2=[N+](CCCCCC(=O)NCCCN(CC(=O)Nc3ccc(C(=O)NCCCC[C@H](NC(=O)N[C@@H](CCC(=O)O)C(=O)O)C(=O)O)cc3)CC(=O)Nc3ccc(C(=O)NCCCC[C@H](NC(=O)N[C@@H](CCC(=O)O)C(=O)O)C(=O)O)cc3)c3ccc4c(S(=O)(=O)[O-])cc(S(=O)(=O)O)cc4c3C2(C)C)C(C)(C)c2c1ccc1c(S(=O)(=O)O)cc(S(=O)(=O)O)cc21`, the Drug uptake result in [1] was “Not Active”; in data set [3] it was “Not Active”; in [4] it was “Not Active”; in data set [5] it was “Not Active”; in data set [6] it was “Active”; in data set [7], “Active”. The Ki in data set [2] was 0.38 nM.

Values taken from ChEMBL document CHEMBL4184252, “Synthesis of novel multivalent fluorescent inhibitors with high affinity to prostate cancer and their biological evaluation” (Bioorg Med Chem Lett, 2018).
